Results on four compounds are retold here after patent US8586768B2, “Design, synthesis and functional characterization of rottlerin analogs” (priority 2009, dated 2013).

Data set [1] deals with T1, PKAα (Homo sapiens, UniProt P17612).
T1 construct: purchased Signal Chem (Richmond, BC, Canada)
Briefly: In-vitro kinase profiling, radioisotope screening assay (Signal Chem). Particulars: 5 μM compound, 50 μM ATP, vs vehicle control; negative = inhibition. In kind it is biochemical. On the procedure: (§1) Kinase profiling of PK analogs. The inhibitory effect of lead PK analogs were tested against a panel of 15 protein kinase targets (TABLE 1) to develop better lead candidates without “off” target effects. The selectivity assay was performed at Signal Chem™ (Richmond, BC, Canada) by profiling against protein kinase targets using the “Gold Standard” radioisotope screening assay format. This assay format gave the highest signal noise ratio and allowed the direct measurement of catalytic activity of a protein kinase.
(§2) All assays were performed in triplicate in a 96-well assay format and the % error between triplicates is <10%. Protein kinase assays was performed in the presence of 50 μM ATP at 30° C. for 15 min. The activity of the enzymes in the presence of 5 μM PK analogs was compared to that in the vehicle control and expressed as a percent change in activity relative to that observed in the vehicle control. In TABLE 1, the results are expressed as percent activity change compared to control. The intra-assay variability was determined to be less than 10%. Inhibition of target activity by the compound is shown by a negative value, while activation of target activity is shown by positive value, with values >10% considered to be highly significant.

Data set [2] concerns the target T2, CamK2a (Homo sapiens, UniProt Q9UQM7).
T2 construct: purchased Signal Chem (Richmond, BC, Canada)
The description is as above. In kind it is biochemical. Conditions: 5 μM compound, 50 μM ATP, vs vehicle control; negative = inhibition. On the procedure: as §1, §2

The target in data set [3] is T3, ERKI (Homo sapiens, UniProt P27361).
T3 construct: purchased Signal Chem (Richmond, BC, Canada)
T3 sequence (P27361 whole entry): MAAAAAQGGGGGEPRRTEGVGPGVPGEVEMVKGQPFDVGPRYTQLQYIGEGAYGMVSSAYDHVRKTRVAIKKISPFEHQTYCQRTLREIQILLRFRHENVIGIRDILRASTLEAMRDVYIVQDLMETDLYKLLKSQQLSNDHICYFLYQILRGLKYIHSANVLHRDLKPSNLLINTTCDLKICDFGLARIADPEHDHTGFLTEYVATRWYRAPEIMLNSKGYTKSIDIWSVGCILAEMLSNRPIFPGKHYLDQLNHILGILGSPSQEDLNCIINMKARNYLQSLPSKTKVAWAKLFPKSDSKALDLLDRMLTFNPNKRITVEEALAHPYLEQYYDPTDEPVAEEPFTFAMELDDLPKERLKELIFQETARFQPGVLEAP
The description is as above. In kind it is biochemical. Particulars: 5 μM compound, 50 μM ATP, vs vehicle control; negative = inhibition. On the procedure:
as §1, §2

Data set [4] concerns the target T4, JNK3 (Homo sapiens, UniProt P53779).
T4 construct: purchased Signal Chem (Richmond, BC, Canada)
The data set is described as above. In kind it is biochemical. Conditions: for % activity change: 5 μM compound, 50 μM ATP, vs vehicle control, negative = inhibition; for inhibited by % compared to control: 5 μM concentration, given as positive inhibition. On the procedure:
as §1, §2

Data set [5] has as its target T5, PKCβ (Homo sapiens, UniProt P05771).
T5 construct: purchased Signal Chem (Richmond, BC, Canada)
The description is as above. In kind it is biochemical. Conditions: 5 μM compound, 50 μM ATP, vs vehicle control; negative = inhibition. On the procedure: as §1, §2

Data set [6] deals with T6, AKT1 (Homo sapiens, UniProt P31749).
T6 construct: purchased Signal Chem (Richmond, BC, Canada)
T6 sequence (P31749 whole entry): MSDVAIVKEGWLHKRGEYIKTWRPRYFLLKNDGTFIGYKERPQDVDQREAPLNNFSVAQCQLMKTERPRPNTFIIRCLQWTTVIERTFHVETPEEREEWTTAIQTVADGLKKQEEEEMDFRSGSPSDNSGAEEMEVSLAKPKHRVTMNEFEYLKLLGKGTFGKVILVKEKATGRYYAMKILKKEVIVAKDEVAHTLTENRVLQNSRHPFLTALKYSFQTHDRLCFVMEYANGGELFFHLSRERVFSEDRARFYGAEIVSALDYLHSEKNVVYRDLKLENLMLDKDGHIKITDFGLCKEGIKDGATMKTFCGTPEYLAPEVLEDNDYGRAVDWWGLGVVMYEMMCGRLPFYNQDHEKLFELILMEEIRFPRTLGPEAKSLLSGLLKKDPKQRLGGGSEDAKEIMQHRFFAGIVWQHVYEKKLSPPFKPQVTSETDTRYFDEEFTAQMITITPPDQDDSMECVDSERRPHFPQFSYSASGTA
The description is as above. In kind it is biochemical. Particulars: for % activity change: 5 μM compound, 50 μM ATP, vs vehicle control, negative = inhibition. On the procedure:
as §1, §2

A short description of data set [7]: LC-MS-MS detection in mouse brain after oral administration. In kind it is in vivo. An excerpt:
Bioavailability of Lead PK analogs. LC-MS-MS detection of lead PK analogs PK202 and PK8302 analog in mouse brain was completed.

In data set [8] the target is PKCδ (Homo sapiens, UniProt Q05655). Briefly: In vitro 32P phosphorylation kinase assay with histone substrate. In kind it is biochemical. Conditions: for % activity change 3 μM: 3 μM compound, negative = inhibition. On the procedure:
Since PK analogs are directed against PKCδ, it was first determined whether the analogs would inhibit PKCδ enzyme activity in kinase assays. The ability of lead PK analogs to inhibit purified human recombinant PKCδ enzyme activity by 32P phosphorylation kinase assay with histone as the substrate was measured. The in vitro kinase assays were performed with human recombinant PKCδ in the presence or absence of 0.3-10 μM lead PK analogs in the presence histone substrate, [^32P]-ATP and phospholipids. The extent of histone phosphorylation was determined after separation in SDS-PAGE and by phosphoimaging. IC50 was obtained using sigmoidal dose-response curve and non-linear regressional analysis using Graphpad Prism software.
In vitro kinase assays were performed with human recombinant PKCδ in the presence or absence of 0.3-10 μM lead PK analogs in the presence histone substrate, [^32P]-ATP and phospholipids. The extent of histone phosphorylation was determined after separation in SDS-PAGE and by phosphoimaging.

Data set [9] has as its system caspase-3 activity in N27 cells. The data set can be described thus: MPP+-induced caspase-3 activity assay in N27 cells. Conditions: for relative protection against MPP+-induced caspase-3 activity within the generation / blockage of MPP+-induced caspase-3 activity: 300 μM MPP+ 24 hr; for relative protection against MPP+-induced caspase-3 activity within the generation: 0.3-10 μM; for blockage of MPP+-induced caspase-3 activity: co-treated with 0.3, 1, 3 and 10 μM. In kind it is cell-based, rat. The method, then:
To determine whether PK analogs are neuroprotective against MPP+-induced increases in caspase-3 and DNA fragmentation, their effects on MPP+-induced increases in caspase-3 activity and DNA fragmentation, markers of apoptotic cell death, were examined.
The second generation PK analogs were further tested to determine whether the analogs are neuroprotective against MPP+-induced apoptotic cell death. The effects on MPP+-induced increases in caspase-3 enzymatic activity were analyzed, a marker of apoptotic cell death. […] At the end of the treatment, cytotoxicity was measured using the caspase-3 assay in a 96-well fluorescence microplate reader.
The third generation PK analogs were further tested to determine whether the analogs are neuroprotective against MPP+-induced apoptotic cell death. The effects on MPP+-induced increases in caspase-3 enzymatic activity were examined, a marker of apoptotic cell death. N27 cells were exposed to 300 μM MPP+ for 24 hr in the presence or absence of three different PK compounds in the dose range of 0.3-10 μM. At the end of the treatment, cytotoxicity was measured using the caspase-3 assay in a 96-well fluorescence microplate reader.
Rat mesencephalic dopaminergic clonal cells (N27) were used and maintained in RPMI 1640 complete medium supplemented with 10% Fetal Bovine Serum, 1% […] and 1% Penicillin/Streptomycin in a 37° C. incubator with 5% CO2. After 4-6 days in culture, the cells were used for the experiments.
N27 cells were exposed to MPP^+ for 24 hr in the presence or absence of PK analogs in the dose range of 1-30 μM.

Data set [10] relates to C57 black mice. The data set can be described thus: Acute MPTP mouse model of PD, locomotor activity (VersaMax Analyzer). In kind it is in vivo. Particulars: MPTP 4 x 18 mg/kg i.p.; 10 mg/kg oral gavage, 7 days. The method, then: (§3) Lead PK analogs protect against behavioral deficits and neurochemical loss in a preclinical MPTP-induced mouse model of PD. After characterizing the neuroprotective effect of PK analogs in cell culture models of PD, as a proof of principle, preliminary evaluation of two lead PK analogs in an acute MPTP animal model of PD were conducted. C57 black mice received 4 doses of MPTP at 18 mg/kg i.p at 2 hr interval. Oral administration of lead PK analogs (10 mg/kg body wt, oral gavage) was started 1 day before MPTP insult and continued for 7 days. 1% DMSO was used as the vehicle control. Locomotor activity was measured using the VersaMax Analyzer 1-2 days before sacrificing the mice. Mice were sacrificed after 7 days of MPTP injection. (n=5). (**p<0.01: PK analogs versus MPTP).

For data set [11], the system named is C57 black mice. Briefly: Acute MPTP mouse model of PD, striatal dopamine and DOPAC. In kind it is in vivo. Particulars: MPTP 4 x 18 mg/kg i.p.; 10 mg/kg oral gavage, 7 days. The method, then: as §3
[12] abbreviates: mouse brain, oral administration (oral gavage).
Setting [13] is: 0.3-10 μM, histone substrate, [32P]-ATP, phospholipids, read-out: IC50.

The structures appear in SMILES notation. Read-outs that look alike come from different tables or passages of the source.

T5 sequence (P05771 whole entry): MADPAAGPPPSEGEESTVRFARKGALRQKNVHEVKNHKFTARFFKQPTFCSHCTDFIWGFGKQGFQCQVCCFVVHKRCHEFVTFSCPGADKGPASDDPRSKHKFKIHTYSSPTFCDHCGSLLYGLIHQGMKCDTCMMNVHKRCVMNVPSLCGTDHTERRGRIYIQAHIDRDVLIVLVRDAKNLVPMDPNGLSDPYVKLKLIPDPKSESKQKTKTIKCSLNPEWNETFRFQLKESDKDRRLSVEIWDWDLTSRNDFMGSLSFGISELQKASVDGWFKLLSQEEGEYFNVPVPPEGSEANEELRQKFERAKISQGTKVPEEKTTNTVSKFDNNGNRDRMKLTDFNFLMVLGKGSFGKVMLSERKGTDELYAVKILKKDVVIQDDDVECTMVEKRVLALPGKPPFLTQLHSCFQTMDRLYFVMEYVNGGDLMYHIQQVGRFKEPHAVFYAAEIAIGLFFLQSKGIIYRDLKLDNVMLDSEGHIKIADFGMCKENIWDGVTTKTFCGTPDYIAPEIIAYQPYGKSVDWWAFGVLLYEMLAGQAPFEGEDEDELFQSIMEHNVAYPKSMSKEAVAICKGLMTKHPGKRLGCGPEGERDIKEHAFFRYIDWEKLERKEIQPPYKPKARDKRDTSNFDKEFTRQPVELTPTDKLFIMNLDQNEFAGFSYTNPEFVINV
Sequence of PKCδ (Q05655 whole entry): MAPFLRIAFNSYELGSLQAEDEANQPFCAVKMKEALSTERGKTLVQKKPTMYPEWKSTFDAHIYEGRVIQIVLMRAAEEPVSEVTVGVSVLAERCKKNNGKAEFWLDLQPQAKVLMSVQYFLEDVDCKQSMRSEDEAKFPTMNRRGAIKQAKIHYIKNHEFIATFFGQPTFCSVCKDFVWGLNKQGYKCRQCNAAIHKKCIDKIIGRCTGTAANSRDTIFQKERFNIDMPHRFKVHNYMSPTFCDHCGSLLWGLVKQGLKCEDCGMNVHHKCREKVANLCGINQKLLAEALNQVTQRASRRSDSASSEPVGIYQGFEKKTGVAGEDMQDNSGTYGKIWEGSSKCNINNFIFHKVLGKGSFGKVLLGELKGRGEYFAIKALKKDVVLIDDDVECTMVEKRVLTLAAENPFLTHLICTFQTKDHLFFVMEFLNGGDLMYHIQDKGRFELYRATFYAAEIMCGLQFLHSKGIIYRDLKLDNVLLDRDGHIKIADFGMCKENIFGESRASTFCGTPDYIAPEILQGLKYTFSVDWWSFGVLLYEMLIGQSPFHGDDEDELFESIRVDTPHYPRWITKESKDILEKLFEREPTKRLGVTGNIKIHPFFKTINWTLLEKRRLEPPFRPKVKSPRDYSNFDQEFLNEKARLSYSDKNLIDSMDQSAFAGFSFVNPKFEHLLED
T4 sequence (P53779 whole entry): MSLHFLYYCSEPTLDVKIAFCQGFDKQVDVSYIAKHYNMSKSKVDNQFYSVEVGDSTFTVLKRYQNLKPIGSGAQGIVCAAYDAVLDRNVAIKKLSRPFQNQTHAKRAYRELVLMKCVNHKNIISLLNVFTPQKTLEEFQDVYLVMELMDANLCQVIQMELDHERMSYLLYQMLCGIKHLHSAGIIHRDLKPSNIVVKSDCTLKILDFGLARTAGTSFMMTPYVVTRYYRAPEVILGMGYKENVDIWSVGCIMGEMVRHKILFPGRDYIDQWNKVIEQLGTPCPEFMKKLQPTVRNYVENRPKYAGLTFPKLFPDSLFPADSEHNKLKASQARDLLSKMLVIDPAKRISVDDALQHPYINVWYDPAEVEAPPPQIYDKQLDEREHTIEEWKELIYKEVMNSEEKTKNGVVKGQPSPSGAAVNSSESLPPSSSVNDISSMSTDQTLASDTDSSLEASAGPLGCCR
T2 sequence (Q9UQM7 whole entry): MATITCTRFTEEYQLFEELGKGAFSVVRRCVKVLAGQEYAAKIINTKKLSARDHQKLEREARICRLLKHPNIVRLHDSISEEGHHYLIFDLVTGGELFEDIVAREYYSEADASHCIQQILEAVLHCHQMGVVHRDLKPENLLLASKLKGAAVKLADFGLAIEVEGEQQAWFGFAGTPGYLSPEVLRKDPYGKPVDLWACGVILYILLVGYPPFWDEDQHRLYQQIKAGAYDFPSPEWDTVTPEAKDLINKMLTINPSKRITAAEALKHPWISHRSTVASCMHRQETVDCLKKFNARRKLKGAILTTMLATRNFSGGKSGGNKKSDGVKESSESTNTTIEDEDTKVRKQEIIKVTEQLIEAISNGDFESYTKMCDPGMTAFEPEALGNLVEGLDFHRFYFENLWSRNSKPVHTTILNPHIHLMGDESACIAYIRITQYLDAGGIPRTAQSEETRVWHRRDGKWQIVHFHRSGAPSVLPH

As to `CC(=O)c1c(O)c(C)c(O)c(Cc2c(O)c3c(c(C(=O)/C=C/c4ccccc4)c2O)OC(C)(C)C=C3)c1O` [Rottlerin, (E)-1-[6-[(3-acetyl-2,4,6-trihydroxy-5-methylphenyl)methyl]-5,7-dihydroxy-2,2-dimethylchromen-8-yl]-3-phenylprop-2-en-1-one], the “% activity change” value in data set [1] is on record as 1%; in data set [2], 7%; in [3] it was 3%; in data set [4] it was 7%; in data set [5], 0%; in data set [6], −14%. The inhibition at 5 µM in data set [6] (5 μM concentration, given as positive inhibition, read-out: inhibited by % compared to control) was 14%. The “level detected in substantia nigra by LC-MS-MS” value (“level detected” below) in data set [7] (setting [12]) is “Significant levels”. The same compound showed an IC50 in data set [8] of 13.6 µM. Moreover, in data set [8], the “% activity change 3 μM” value was −40%.

Regarding `CC1(C)C=Cc2c(O)cc(O)c(C(=O)/C=C/c3ccccc3)c2O1` [PK302], the “relative protection against MPP+-induced caspase-3 activity within the generation” value in data set [9] is recorded as “more effectively protect”. The “blockage of MPP+-induced caspase-3 activity” value in data set [9] is on record as “significant blockage”. Moreover, the “% activity change” value in [1] is recorded as 1%; in data set [2], 5%; in [3] it was 3%; in data set [4], −10%; in data set [5] it was 6%; in [6], −10%. Further, the horizontal locomotor deficits entry in data set [10] is “significantly improved”. Moreover, the vertical locomotor deficits result in data set [10] is listed as “significantly improved”. Moreover, the “striatal DOPAC depletion” value in [11] is listed as “attenuated”. In data set [11], the striatal dopamine depletion entry was “attenuated”. The “level detected” value in [7] (mouse, in vivo, po) was “Significant amounts”. Further, the “% activity change 3 μM” value in data set [8] was −73%. In addition, the IC50 in [8] (setting [13]) was 1.99 µM.

With `Oc1cc(O)c(Cc2c(O)cc(O)cc2O)c(O)c1` [PK103], the “blockage of MPP+-induced increases in caspase-3 activation” value in data set [9] (co-treated with 3 μM) is “significant blockage”. The “% activity change” value in data set [1] is on record as 3%; in data set [2] it was 6%; in data set [3], 0%; in [4], −12%; in data set [5] it was 3%; in [6], −6%. For the same compound, the “inhibited by % compared to control” value in data set [4] is 12%. In [10], the horizontal locomotor deficits result was “significantly improved”. Further, in data set [10], the vertical locomotor deficits entry was “significantly improved”. Moreover, in data set [11], the “striatal DOPAC depletion” value is “attenuated”. Further, the striatal dopamine depletion entry in data set [11] is “attenuated”. Further, the “% activity change 3 μM” value in [8] was −65%. The IC50 in data set [8] (setting [13]) is 5.98 µM.

Regarding `CC(=O)c1c(O)c(C)c(O)c(Cc2c(O)c3c(c4c2OC(c2ccccc2)CC4=O)OC(C)(C)C=C3)c1O` (centres unmarked) [PK202], the “relative protection against MPP+-induced caspase-3 activity within the generation” value in [9] is recorded as “more effectively protects”. Also, the “blockage of MPP+-induced caspase-3 activity” value in data set [9] is “dose-dependent blockage”. The “% activity change” value was 10% in [1]; 6% in data set [2]; 4% in [3]; −12% in data set [4]; 1% in data set [5]; −12% in data set [6]. The “inhibited by % compared to control” value in [4] was found to be 12%; in [6] (5 μM concentration, given as positive inhibition), 12%. Further, in [10], the horizontal locomotor deficits entry is recorded as “significantly improved”. For the same compound, in [10], the vertical locomotor deficits result is “significantly improved”. Besides, the “striatal DOPAC depletion” value in data set [11] is “attenuated”. Also, the striatal dopamine depletion entry in data set [11] was “attenuated”. Also, the “level detected” value in data set [7] (setting [12]) is reported as “Significant amounts”. For the same compound, in data set [8], the “% activity change 3 μM” value is −67%. Besides, the IC50 in data set [8] (setting [13]) was 0.97 µM.

As a reminder, the IC50 is the concentration that gives 50% inhibition.
